Results: patent US20250002487A1, “HETEROCYCLIC COMPOUNDS AND USES THEREOF” (Ventus Therapeutics U.S., Inc., priority 2021, published 2025)

Each compound was assayed against human-cGAS (h-cGAS) (Homo sapiens, UniProt Q8N884) (assay: hcGAS Kinase-Glo Assay). Conditions: 40 nM h-cGAS, 100 μM ATP, 100 μM GTP, 25 nM dsDNA, 3 h incubation, read-out: hcGAS potency IC50.
Format: biochemical
How it was run: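 IC50 values come from a luminescence-based Kinase-Glo measurement on human cGAS. Conditions follow the Lama et al. 2019 method with minor modifications.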

Chain of human-cGAS (h-cGAS) (Q8N884 whole entry): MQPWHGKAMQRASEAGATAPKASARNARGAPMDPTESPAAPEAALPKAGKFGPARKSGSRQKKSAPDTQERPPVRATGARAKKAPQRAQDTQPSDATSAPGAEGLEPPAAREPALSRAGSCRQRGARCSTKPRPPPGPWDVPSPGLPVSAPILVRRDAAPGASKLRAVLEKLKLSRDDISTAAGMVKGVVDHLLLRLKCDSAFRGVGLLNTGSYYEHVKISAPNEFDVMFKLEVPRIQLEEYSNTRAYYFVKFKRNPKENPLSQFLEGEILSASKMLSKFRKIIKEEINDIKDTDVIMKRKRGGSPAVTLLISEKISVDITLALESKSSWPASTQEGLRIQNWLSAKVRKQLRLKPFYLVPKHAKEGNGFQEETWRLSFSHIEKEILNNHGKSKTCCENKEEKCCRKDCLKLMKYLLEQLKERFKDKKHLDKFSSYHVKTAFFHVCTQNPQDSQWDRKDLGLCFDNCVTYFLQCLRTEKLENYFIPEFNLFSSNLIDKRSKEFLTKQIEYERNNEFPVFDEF

SMILES	IC50 [nM]
CSc1nnc(NC(=O)c2cn(Cc3ccccc3)nn2)s1 [Compound 42, 1-benzyl-N-(5-(methylthio)-1,3,4-thiadiazol-2-yl)-1H-1,2,3-triazole-4-carboxamide]	≥ 1000
CSc1nnc(NC(=O)c2nnn(-c3ccccc3F)n2)s1 [Compound 138, 2-(2-fluorophenyl)-N-[5-(methylsulfanyl)-1,3,4-thiadiazol-2-yl]-1,2,3,4-tetrazole-5-carboxamide]	500 to 1000
COc1ccc2c(C(=O)Nc3nnc(SC)s3)onc2c1 [Compound 231, 6-methoxy-N-[5-(methylsulfanyl)-1,3,4-thiadiazol-2-yl]-2,1-benzoxazole-3-carboxamide]	100 to 500
Cc1cc(C(=O)Nc2nnc(-c3ccccc3Cl)s2)on1 [Compound 36, N-(5-(2-chlorophenyl)-1,3,4-thiadiazol-2-yl)-3-methylisoxazole-5-carboxamide]	100 to 500
CSc1nnc(NC(=O)c2cc(-c3ccccc3F)cc(=O)o2)s1 [Compound 237, 4-(2-fluorophenyl)-N-(5-methylsulfanyl-1,3,4-thiadiazol-2-yl)-6-oxo-pyran-2-carboxamide]	100 to 500
CSc1nnc(NC(=O)c2cc(Cc3ccccc3)no2)s1 [Compound 233, 3-benzyl-N-[5-(methylsulfanyl)-1,3,4-thiadiazol-2-yl]-1,2-oxazole-5-carboxamide]	500 to 1000
CSc1nnc(NC(=O)c2nnc(-c3ccccc3)o2)s1 [Compound 235, N-[5-(methylsulfanyl)-1,3,4-thiadiazol-2-yl]-5-phenyl-1,3,4-oxadiazole-2-carboxamide]	500 to 1000
O=C(Nc1nnc(-c2ccccc2Cl)s1)c1onc2c(C(=O)O)cccc12 [Compound 178, 3-((5-(2-chlorophenyl)-1,3,4-thiadiazol-2-yl)carbamoyl)benzo[c]isoxazole-7-carboxylic acid]	< 100
CSc1nnc(NC(=O)c2onc3ccc(C(O)c4ccccc4)cc23)s1 (centres unmarked) [Compound 166, 5-(hydroxy(phenyl)methyl)-N-(5-(methylthio)-1,3,4-thiadiazol-2-yl)benzo[c]isoxazole-3-carboxamide]	≥ 1000

Now from value to compound:

IC50 [nM]	SMILES
500 to 1000	CSc1nnc(NC(=O)c2nnc(Nc3ccccc3)o2)s1 [Compound 257, 5-anilino-N-(5-methylsulfanyl-1,3,4-thiadiazol-2-yl)-1,3,4-oxadiazole-2-carboxamide]
< 100	COCCc1cc(C(=O)Nc2nnc(-c3ccccc3Cl)s2)on1 [Compound 169, N-(5-(2-chlorophenyl)-1,3,4-thiadiazol-2-yl)-3-(2-methoxyethyl)isoxazole-5-carboxamide]
500 to 1000	COCCNC(=O)c1cc(C(=O)Nc2nnc(-c3ccccc3Cl)s2)on1 [Compound 88, N5-(5-(2-chlorophenyl)-1,3,4-thiadiazol-2-yl)-N3-(2-methoxyethyl)isoxazole-3,5-dicarboxamide]
500 to 1000	CSc1nnc(NC(=O)c2cc(-c3cccc4ccncc34)cc(=O)o2)s1 [Compound 277, 4-(isoquinolin-8-yl)-N-(5-(methylthio)-1,3,4-thiadiazol-2-yl)-2-oxo-2H-pyran-6-carboxamide]
≥ 1000	CSc1nnc(NC(=O)c2ccc(-c3ccccc3)c(=O)o2)s1 [Compound 225, N-[5-(methylsulfanyl)-1,3,4-thiadiazol-2-yl]-6-oxo-5-phenylpyran-2-carboxamide]
≥ 1000	O=C(Nc1nnc(-c2ncccn2)s1)c1onc2ccccc12 [Compound 148, N-(5-(pyrimidin-2-yl)-1,3,4-thiadiazol-2-yl)benzo[c]isoxazole-3-carboxamide]
500 to 1000	CSc1nnc(NC(=O)c2onc(C)c2C)s1 [Compound 242, 3,4-dimethyl-N-(5-methylsulfanyl-1,3,4-thiadiazol-2-yl)isoxazole-5-carboxamide]
≥ 1000	CSc1nnc(NC(=O)c2nnc(Cc3cccc(Cl)c3)o2)s1 [Compound 44, 5-(3-chlorobenzyl)-N-(5-(methylthio)-1,3,4-thiadiazol-2-yl)-1,3,4-oxadiazole-2-carboxamide]
